One test concerns Culexpipienspallens. Description: Test Example 3: spray knockdown test on Culexpipienspallens imagoes. It counts as in vivo. As to conditions: 0.25 h, oil solution 0.1% w/v, 0.5 ml sprayed, within 15 minutes, read-out: knockdown ratio of the test vermin within 15 minutes. As for the experimental part:
A formulation containing each of the present amide compounds (1), (2), (4), (5), (6), (7), (8), (9), (10), (12), (13), (14), (15), (16), (18), (19), (21), (22), (24), (25), (26) and (27) prepared in accordance with Formulation Example 7 was diluted with an isopropyl alcohol/deodorized kerosine=1/9 mixed liquid so that the active ingredient concentration became 0.1% w/v, to prepare a drug solution for a test.
Ten imagoes of Culexpipienspallens were allowed to release in a polyethylene cup (bottom surface diameter 10.6 cm), and the cup was covered with a 16 mesh nylon gauze. The polyethylene cup was arranged on a bottom of a chamber for a test (bottom surface: 46 cm×46 cm, height: 70 cm). From a height of 30 cm from an upper surface of the polyethylene cup, 0.5 ml of the drug solution for a test was sprayed using a spray gun (spraying pressure 0.4 kg/cm^2). After spraying, the cup was immediately taken out from the chamber for a test, the number of knocked down vermin was counted for 15 minutes with time, and a knockdown ratio was obtained. The knockdown ratio was calculated by the following expression.
Knockdown ratio (%)=(number of knocked down vermin/number of test vermin)×100

Another test concerns Adoxophyesoranafasciata. Description: Test Example 8: apple seedling spray test on first instar larvae of Adoxophyesoranafasciata. It counts as in vivo. As to conditions: first instar larvae of Adoxophyesoranafasciata on apple seedlings; 500 ppm spray, 20 ml; seven days after spraying. Here is the method:
A formulation of the present amide compound (9) prepared in accordance with Formulation Example 15 was diluted with water so that the active ingredient concentration became 500 ppm, to prepare a spray solution for a test. On the other hand, 20 ml of the spray solution for a test was spraying-treated on each of apple seedlings (28 days after seeding, tree height about 15 cm) planted in a plastic cup. After the drug solution which had spray-treated on the apple was air-dried to an extent that the drug solution was dried, about 30 first instar larvae of Adoxophyesoranafasciata were released. Seven days after spraying, the number of live vermin on an apple seedling was investigated, and a controlling value was obtained according to the following expression. Controlling value (%)={1−(Cb×Tai)/(Cai×Tb)}×100 In addition, letters in the expression indicate the following meanings. Cb: Number of vermin before treatment of non-treated section Cai: Number of vermin at observation of non-treated section Tb: Number of vermin before treatment of treated-section Tai: Number of vermin at observation of treated-section

For the compound `O=C(NCC1CCOC1)C1=NOC(CCCCCOc2ccccc2)C1` (centres unmarked) [present amide compound (9), N-(tetrahydrofuran-3-ylmethyl)-5-(5-phenoxypentyl)-4,5-dihydroisoxazole-3-carboxamide], the pest or weed control at 0.1 % strength in the test with Culexpipienspallens is no less than 80%. The same compound gave a controlling value in the test with Adoxophyesoranafasciata of 100%.

Values taken from patent publication US20170215424A1 (SUMITOMO CHEMICAL COMPANY, LIMITED, priority 2014, published 2017).
